Assay results published in patent US7022709B2, “Selective PDE 2 inhibitors as pharmaceuticals for improving perception” (priority 2000, dated 2006).
Read-outs that look alike come from different tables or passages of the source.

How the values were obtained:
adenosine deaminase = adenosine deaminase (Homo sapiens, UniProt P00813); details: read-out: IC50 adenosine deaminase; cited from earlier work
PDE2 [1] = biological target: T1, PDE2 (Homo sapiens, UniProt O00408); details: cited from earlier work
[2] = tested on: primary mouse (E18) cortex cultures; experiment: Increasing the intracellular neuronal cGMP concentration in cell cultures; type: cell-based; details: 100 nM Example 1, parallel incubation with 100 µM SNP, 20 min, 37° C., mouse cortical neurons
Experimental: PDE 2 inhibitors increase the intracellular neronal cGMP concentration after prestimulation of guanylate cyclase with 10^−4 M sodium nitroprusside (SNP) in primary mouse brain cell cultures.
Mouse embryos were decapitated and the heads were transferred into dissection dishes. The scalp and roof of the skull were removed, and the exposed brains were transferred into another Petri dish. Using a binocular microscope and two forceps, the cerebrum (cortex) was isolated and cooled to 4° C. with ice. This dissection and the isolation of the cortical neurons were then carried out in accordance with a standard protocol with the papain dissociation system (Worthington Biochemical Corporation, Lakewood, N.J. 08701, USA) (Huettner et al. J. Neurosci. 1986, 6, 3044–3060.). […] The cells were then lysed with 200 μl lysis buffer (cGMP kit code RPN 226; from Amersham Pharmacia Biotech.) and cGMP concentration was measured as stated by the manufacturer. […]
Cells were treated with […] SNP (0) or with […] SNP and Example 1 (1×10^−8 M; 5×10^−8 M; 1×10^−7 M; 5×10^−7 M; 1×10^−6 M) for 20 min. The intracellular cGMP level was then measured.

PDE7B = biological target: T2, PDE7B (Homo sapiens, UniProt Q9NP56); experiment: PDE inhibition, human recombinant PDE7B, [3H]cAMP SPA; type: biochemical
T2 construct: made in house; host or cells: Sf9 cells, pFASTBAC baculovirus expression system (Gibco BRL)
Experimental: (§1) Human recombinant PDE2 (Rosman et al. Gene 1997 191, 89–95), PDE3B (Miki et al. Genomics 1996 36, 476–485), PDE4B (Bolger et al. Mol. Cell. Biol. 1993 13, 6558–6571) and PDE7B (Hetman et al. Proc. Natl. Acad. Sci. U.S.A. 2000 97, 472–476) are expressed in Sf9 cells with the aid of the pFASTBAC baculovirus expression system (Gibco BRL).
(§2) The activity of the test substances on human recombinant PDE2, PDE3B, PDE4B and PDE7B is determined using the [^3H]cAMP scintillation proximity assay (SPA) kit (TRKQ7090) from Amersham International (Little Chalfont, England) and on PDE1 and PDE5 using the [^3H]cGMP scintillation proximity assay (SPA) kit (TRKQ7100) from Amersham International (Little Chalfont, England).
(§3) Test substances are dissolved in 100% DMSO (10 mM), and this solution is diluted further with H2O (maximum final concentration in the assay: 10 μM). The PDE2 is prestimulated by adding cGMP (final concentration in the assay: 10^−6 M). The enzyme is diluted in PDE buffer (20 mM TRIS/HCl, 5 mM MgCl2, 0.1 mg/ml albumin, pH 7.5). […] After the beads have settled out (about 15 min), the plate is measured in a beta counter.
(§4) Calmodulin 10^−7 M and CaCl2 1 μM are added to the reaction mixture for the PDE1 measurement. PDE5 is measured using the [^3H] cGMP SPA assay. PDE3B, PDE4B and PDE7B are measured using the [^3H] cAMP scintillation proximity assay.

PDE3B = biological target: T3, PDE3B (Homo sapiens, UniProt Q13370); experiment: PDE inhibition, human recombinant PDE3B, [3H]cAMP SPA; type: biochemical
T3 construct: made in house; host or cells: Sf9 cells, pFASTBAC baculovirus expression system (Gibco BRL)
Experimental: as §1, §2, §3, §4

PDE2 [3] = biological target: T1, PDE2; experiment: PDE inhibition, human recombinant PDE2, [3H]cAMP SPA; type: biochemical; design: made in house; host or cells: Sf9 cells, pFASTBAC baculovirus expression system (Gibco BRL)
Experimental: as §1, §2, §3

PDE5 = biological target: T4, PDE5 (Homo sapiens, UniProt O76074); experiment: PDE inhibition, PDE5, [3H]cGMP SPA; type: biochemical
T4 construct: from tissue; host or cells: human blood platelets (inferred; b27 also lists porcine small intestine, porcine aorta and, preferably, bovine aorta)
From the text: (§5) The PDE 2 which can be stimulated by cGMP is isolated from bovine myocardium. The PDE 1 which can be stimulated by Ca^2+ calmodulin is isolated from porcine aorta, porcine brain or, preferably, from bovine aorta. The cGMP-specific PDE 5 is obtained from porcine small intestine, porcine aorta, human blood platelets and, preferably, from bovine aorta. Purification takes place by anion exchange chromatography on MonoQ^R Pharmacia essential by the method of Hoey, M; Houslay, M. D., Biochem. Pharmacol. 1990, 40, 193–202 and Lugman et al. Biochem. Pharmacol. 1986, 35, 1743–1751.
(§6) The enzymatic activity is determined in an assay mixture of 100 μl in 20 mM Tris/HCl buffer pH 7.5 which contains 5 mM MgCl2, 0.1 mg/ml bovine serum albumin and 800 Bq of either [^3H]-cAMP or [^3H]-cGMP. […] 100 μl of the reaction mixture are separated by HPLC, and the cleavage products are determined quantitatively on line using a flow scintillation counter. The substance concentration at which the reaction rate is reduced by 50% is measured. […]
as §2, with “England). […]” for “England).”

PDE1 = experiment: PDE inhibition, PDE1 (Ca-calmodulin-dependent); type: biochemical; details: bovine PDE1
From the text: as §5, §6
as §2, with “England). […]” for “England).”

PDE4B = biological target: T5, PDE4B (Homo sapiens, UniProt Q07343); experiment: PDE inhibition, human recombinant PDE4B, [3H]cAMP SPA; type: biochemical
T5 construct: made in house; host or cells: Sf9 cells, pFASTBAC baculovirus expression system (Gibco BRL)
Experimental: as §1, §2, §3, §4

PDE2 [4] = biological target: T6, PDE2 (Bos taurus, UniProt P14099); experiment: PDE inhibition, cGMP-stimulated PDE2 from bovine myocardium; type: biochemical
T6 construct: from tissue; host or cells: bovine myocardium
T6 sequence (P14099 1-921): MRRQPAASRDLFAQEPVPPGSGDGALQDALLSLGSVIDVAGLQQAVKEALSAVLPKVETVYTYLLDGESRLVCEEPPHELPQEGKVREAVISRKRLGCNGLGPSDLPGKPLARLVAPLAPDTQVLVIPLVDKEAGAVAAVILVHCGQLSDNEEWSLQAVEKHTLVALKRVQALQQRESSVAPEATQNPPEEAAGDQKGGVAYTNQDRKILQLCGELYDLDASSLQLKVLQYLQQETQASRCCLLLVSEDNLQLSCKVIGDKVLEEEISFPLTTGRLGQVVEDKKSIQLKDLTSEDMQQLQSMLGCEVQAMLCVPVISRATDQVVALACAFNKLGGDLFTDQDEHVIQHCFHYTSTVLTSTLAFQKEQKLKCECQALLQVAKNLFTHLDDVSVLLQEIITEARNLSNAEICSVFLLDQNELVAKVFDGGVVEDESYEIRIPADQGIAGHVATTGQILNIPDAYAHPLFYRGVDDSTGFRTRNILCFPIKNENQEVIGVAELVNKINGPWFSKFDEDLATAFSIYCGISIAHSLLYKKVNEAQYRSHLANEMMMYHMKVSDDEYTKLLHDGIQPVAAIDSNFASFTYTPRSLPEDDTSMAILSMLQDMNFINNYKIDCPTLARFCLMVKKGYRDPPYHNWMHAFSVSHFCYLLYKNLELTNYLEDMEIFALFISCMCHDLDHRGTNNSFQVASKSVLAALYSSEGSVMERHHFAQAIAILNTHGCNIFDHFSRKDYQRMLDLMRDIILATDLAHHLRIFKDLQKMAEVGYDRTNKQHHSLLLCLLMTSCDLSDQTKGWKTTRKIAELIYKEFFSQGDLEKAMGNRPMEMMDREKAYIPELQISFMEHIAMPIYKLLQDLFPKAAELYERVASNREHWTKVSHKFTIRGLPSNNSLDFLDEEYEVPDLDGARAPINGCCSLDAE
From the text: as §5
as §6, with “[^3H]-cGMP. The final concentration of the respective nucleotides is 10^−6 mol/l.” for “[^3H]-cGMP.”
Test substances are dissolved in 100% DMSO (10 mM), and this solution is diluted further with H2O (maximum final concentration in the assay: 10 μM). […] After the beads have settled out (about 15 min), the plate is measured in a beta counter.

rats = experiment: Object recognition test; type: in vivo, rat; details: second run 24 hours later
Experimental: The object recognition test is a memory test. It measures the ability of rats (and mice) to distinguish between familiar and unfamiliar objects.
The test was carried out as described (Blokland et al. NeuroReport 1998, 9, 4205–4208; Ennaceur, A., Delacour, J., Behav. Brain Res. 1988, 31, 47–59; Ennaceur, A., Meliani, K., Psychopharmacology 1992, 109, 321–330; Prickaerts, et al. Eur. J. Pharmacol. 1997, 337, 125–136).
In a first run, a rat is confronted in an otherwise empty observation arena of relatively large size by two identical objects. The rat will investigate, i.e. sniff round and touch, both objects extensively. In a second run, after an interval of 24 hours, the rat is put in the observation arena again. One of the familiar objects has now been replaced by a new, unfamiliar object. If a rat recognizes the familiar object, it will concentrate on investigating the unfamiliar object. However, after 24 hours, a rat has normally forgotten which object it investigated in the first run, and it will therefore inspect both objects to the same extent. Administration of a substance with a learning- and memory-improving effect will lead to a rat recognizing the object seen in the first run 24 hours previously as familiar. It will investigate the new, unfamiliar object in more detail than the familiar one. This memory ability is expressed in a discrimination index. A discrimination index of zero means that the rat investigates both objects, the old and the new, for equal times; that is to say it has not recognized the old object and reacts to both objects as if they were unfamiliar and new.
The effects of Example 1 on object recognition by rats 24 hours after the first run were investigated. The animals received Tylose alone, or Example 1 in dosages of 0.3, 1.0 or 3.0 mg/kg of body weight suspended in Tylose, orally, immediately following the first run with two identical objects. […] After a washout period of 2 or 3 days, a new dosage of Example 1 was tested in the same rats, until the memory capacity of all the rats had been measured twice with all the dosages. […]

T1 sequence (O00408 whole entry): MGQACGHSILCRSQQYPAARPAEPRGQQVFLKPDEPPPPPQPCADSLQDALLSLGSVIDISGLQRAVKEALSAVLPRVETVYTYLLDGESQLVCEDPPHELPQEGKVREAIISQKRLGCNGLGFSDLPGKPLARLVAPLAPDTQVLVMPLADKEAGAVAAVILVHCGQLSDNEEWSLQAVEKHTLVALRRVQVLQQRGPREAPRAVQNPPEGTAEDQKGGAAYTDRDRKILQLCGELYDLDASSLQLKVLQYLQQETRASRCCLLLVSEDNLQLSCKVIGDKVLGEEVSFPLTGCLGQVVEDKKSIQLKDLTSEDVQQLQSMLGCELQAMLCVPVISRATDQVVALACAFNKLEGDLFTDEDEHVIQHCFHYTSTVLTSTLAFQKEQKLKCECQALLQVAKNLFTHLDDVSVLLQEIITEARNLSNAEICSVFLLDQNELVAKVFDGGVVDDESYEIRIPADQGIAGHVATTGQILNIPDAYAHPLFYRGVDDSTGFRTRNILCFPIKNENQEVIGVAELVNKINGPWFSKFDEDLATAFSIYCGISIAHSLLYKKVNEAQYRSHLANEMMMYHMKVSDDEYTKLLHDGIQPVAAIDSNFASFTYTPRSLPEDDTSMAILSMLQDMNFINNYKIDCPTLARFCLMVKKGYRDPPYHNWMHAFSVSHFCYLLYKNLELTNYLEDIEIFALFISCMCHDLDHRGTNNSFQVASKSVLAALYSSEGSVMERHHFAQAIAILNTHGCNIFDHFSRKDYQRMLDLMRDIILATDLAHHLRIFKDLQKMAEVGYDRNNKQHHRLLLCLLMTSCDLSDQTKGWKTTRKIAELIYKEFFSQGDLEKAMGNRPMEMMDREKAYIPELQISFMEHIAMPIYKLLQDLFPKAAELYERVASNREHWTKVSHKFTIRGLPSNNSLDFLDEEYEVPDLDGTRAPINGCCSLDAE
T2 sequence (Q9NP56 whole entry): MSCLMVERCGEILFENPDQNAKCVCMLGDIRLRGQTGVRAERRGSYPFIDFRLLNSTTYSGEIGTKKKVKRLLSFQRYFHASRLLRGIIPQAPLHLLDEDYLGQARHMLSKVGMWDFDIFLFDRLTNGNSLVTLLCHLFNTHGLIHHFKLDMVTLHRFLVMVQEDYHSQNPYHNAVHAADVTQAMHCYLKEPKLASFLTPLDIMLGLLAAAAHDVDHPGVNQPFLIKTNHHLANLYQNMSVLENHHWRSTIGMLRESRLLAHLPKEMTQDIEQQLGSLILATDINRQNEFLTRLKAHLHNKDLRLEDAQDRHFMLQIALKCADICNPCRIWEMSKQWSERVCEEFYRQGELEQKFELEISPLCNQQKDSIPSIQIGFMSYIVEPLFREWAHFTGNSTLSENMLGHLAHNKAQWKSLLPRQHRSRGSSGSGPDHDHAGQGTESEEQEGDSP
T5 sequence (Q07343 whole entry): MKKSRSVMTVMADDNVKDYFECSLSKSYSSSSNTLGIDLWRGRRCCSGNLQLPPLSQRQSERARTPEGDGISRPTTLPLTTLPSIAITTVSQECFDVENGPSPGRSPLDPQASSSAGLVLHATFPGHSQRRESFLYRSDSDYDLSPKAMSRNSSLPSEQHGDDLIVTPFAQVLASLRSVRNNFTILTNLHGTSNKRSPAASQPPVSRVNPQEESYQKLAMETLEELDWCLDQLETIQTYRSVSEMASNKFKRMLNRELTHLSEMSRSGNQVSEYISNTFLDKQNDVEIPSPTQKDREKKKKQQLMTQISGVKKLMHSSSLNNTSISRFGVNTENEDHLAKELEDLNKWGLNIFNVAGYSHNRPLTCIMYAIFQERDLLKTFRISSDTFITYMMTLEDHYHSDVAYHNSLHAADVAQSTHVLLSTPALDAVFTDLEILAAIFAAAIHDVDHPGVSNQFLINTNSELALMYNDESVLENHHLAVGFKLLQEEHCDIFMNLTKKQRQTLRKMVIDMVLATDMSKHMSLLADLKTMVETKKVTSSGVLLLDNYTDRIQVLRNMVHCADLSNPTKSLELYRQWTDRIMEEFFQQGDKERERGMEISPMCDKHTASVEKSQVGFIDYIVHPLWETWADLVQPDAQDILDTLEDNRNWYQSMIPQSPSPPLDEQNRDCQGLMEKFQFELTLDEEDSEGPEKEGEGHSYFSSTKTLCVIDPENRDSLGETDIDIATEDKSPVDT
Chain of adenosine deaminase (P00813 whole entry, species assumed): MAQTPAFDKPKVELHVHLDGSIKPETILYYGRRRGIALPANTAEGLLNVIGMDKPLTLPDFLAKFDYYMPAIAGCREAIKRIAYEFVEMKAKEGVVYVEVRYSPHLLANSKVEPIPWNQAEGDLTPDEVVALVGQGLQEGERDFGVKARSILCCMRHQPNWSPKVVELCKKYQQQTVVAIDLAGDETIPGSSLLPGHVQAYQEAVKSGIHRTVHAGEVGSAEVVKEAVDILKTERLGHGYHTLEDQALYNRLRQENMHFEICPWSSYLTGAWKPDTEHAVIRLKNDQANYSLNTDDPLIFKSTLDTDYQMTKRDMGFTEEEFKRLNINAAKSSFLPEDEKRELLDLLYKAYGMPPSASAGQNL
T3 sequence (Q13370 whole entry): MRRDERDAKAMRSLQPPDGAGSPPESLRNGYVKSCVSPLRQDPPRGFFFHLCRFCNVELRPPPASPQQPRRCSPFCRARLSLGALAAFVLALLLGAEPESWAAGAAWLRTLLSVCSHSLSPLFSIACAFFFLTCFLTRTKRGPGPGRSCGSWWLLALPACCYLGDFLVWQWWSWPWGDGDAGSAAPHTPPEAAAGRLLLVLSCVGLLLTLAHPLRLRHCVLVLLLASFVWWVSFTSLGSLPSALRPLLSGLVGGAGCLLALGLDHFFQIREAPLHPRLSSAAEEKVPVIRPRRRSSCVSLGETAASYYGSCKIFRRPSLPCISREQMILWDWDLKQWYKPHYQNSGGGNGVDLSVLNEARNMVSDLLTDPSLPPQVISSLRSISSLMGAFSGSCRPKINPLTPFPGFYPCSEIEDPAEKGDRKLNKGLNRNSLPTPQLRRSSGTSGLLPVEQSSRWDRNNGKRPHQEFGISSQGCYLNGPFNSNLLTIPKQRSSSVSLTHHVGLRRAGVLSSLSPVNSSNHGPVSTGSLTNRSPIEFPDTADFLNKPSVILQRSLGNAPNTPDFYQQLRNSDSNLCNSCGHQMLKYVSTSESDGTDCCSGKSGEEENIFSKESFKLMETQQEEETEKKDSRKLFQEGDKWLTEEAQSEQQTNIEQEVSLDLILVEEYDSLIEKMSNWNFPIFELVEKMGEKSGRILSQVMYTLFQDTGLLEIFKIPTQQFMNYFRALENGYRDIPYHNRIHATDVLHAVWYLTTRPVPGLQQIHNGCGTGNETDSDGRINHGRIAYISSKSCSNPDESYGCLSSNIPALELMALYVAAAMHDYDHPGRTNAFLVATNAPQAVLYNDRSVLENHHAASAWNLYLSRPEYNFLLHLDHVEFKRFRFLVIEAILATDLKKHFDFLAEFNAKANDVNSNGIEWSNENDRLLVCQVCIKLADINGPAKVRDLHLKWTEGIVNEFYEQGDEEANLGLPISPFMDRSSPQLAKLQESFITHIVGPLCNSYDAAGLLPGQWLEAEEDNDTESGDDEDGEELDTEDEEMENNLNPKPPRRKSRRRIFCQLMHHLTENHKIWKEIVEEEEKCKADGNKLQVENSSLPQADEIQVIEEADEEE

SMILES | IC50 (adenosine deaminase) | IC50 (PDE2 [1]) | intracellular cGMP level [2] | IC50 (PDE7B) | IC50 (PDE3B) | IC50 (PDE2 [3]) | IC50 (PDE5) | IC50 (PDE1) | IC50 (PDE4B) | IC50 (PDE2 [4]) | memory capacity in the second run compared with control (Tylose alone) (rats; 0.3 mg/kg orally immediately after the first run) | memory capacity in the second run compared with control (Tylose alone) (rats; 1.0 mg/kg orally immediately after the first run) | discrimination index (d2) (rats; 0.3 and 1.0 mg/kg orally)
CCCCCCC(C(C)O)n1cnc2c(N)ncnc21 (stereo not drawn) [EHNA, erythro-9-(2-hydroxy-3-nonyl)adenine] | 0.003 µM | 1 µM |  |  |  |  |  |  |  |  |  |  | 
COc1ccc(Cc2nc3c(c(C)nn3C(CCCc3ccccc3)C(C)O)c(=O)[nH]2)cc1OC (stereo not shown) [Example 1, 6-(3,4-dimethoxybenzyl)-1-[1-(1-hydroxyethyl)-4-phenylbutyl]-3-methyl-1,5-dihydropyrazolo[3,4-d]pyrimidin-4-one] |  |  | distinct increase | 1.6 µM | > 4 µM | 0.006 µM | 0.3 µM | 0.2 µM | 2.9 µM | 0.007 µM | improved | improved | greater than zero
